# Key:
# [1] = test system: mammals; details: cited from earlier work; for neuronal toxicity: used in mammals
# [2] = cited from earlier work
# [3] = test system: UPII-SV40T transgenic mice; assay: Intravesical instillation of ICG and intraoperative NIRF identification of lymphatic channels and SLNs in bladder tumor mice; assay type: in vivo
Molecule,neuronal toxicity [1],metabolism ([2]; in the body),excretion ([2]; in vivo),reabsorption from the intestine / enterohepatic recirculation ([2]; in vivo),toxicity ([1]; in vivo),"animals showing draining lymphatic channels and SLNs ([3]; 12 female mice, intravesical ICG 2.5 mg/mf, 100 or 200 μl, NIRF 20, 30 and 60 minutes later) [animals]","visualization of SLNs by intraoperative imaging ([3]; dye instilled at 10, 20, 30, or 60 minutes before imaging)","sentinel nodes detected per animal ([3]; in all animals, intravesical ICG, NIRF)","location of SLNs ([3]; intravesical ICG, NIRF)","fluorescence of lymphatic channels and nodes following instillation of the dye into the bladder ([3]; mouse, FIG. 1B and 1C)"
N=C(N)c1ccc(/C=C/c2ccc(C(=N)N)cc2O)cc1 [Fluorogold],low evidence of neuronal toxicity,–,–,–,–,–,–,–,–,–
"CC1(C)C(/C=C/C=C/C=C/C=C2\N(CCCCS(=O)(=O)O)c3ccc4ccccc4c3C2(C)C)=[N+](CCCCS(=O)(=O)[O-])c2ccc3ccccc3c21 [ICG, indocyanine green]",low evidence of neuronal toxicity,not metabolized,excreted exclusively by the liver,not reabsorbed from the intestine and does not undergo enterohepatic recirculation,low toxicity,12,successfully visualized,At least two,common or external iliac lymphatic chains,fluorescing of the mouse's lymphatic channels and nodes on iliac bifurcation
Fast Blue,low evidence of neuronal toxicity,–,–,–,–,–,–,–,–,–

# Source: patent US9089601B2, “Pre- and intra-operative imaging of bladder cancer” (University of Rochester, priority 2006, dated 2015)
